“Also recorded” adds a separate entry of the source.
Tests used:
CD200 = test: qPCR of CD200 RNA levels in melanoma cell lines after MEK-inhibitor treatment; type: cell-based; details: panel of melanoma cell lines, 24 h, 100 nM
Experimental: FIGS. 11A-C. 11A. CD200 decrease in melanomas after MEK-inhibitor treatment, but not in carcinomas (GSE10087). 11B. […] 11C. The pREP4-CD200 reporter recapitulates changes in response to MEK-inhibitor (24 h; 100 nM). Significance as * p<0.05: ** p<0.01, based on 2-sample, 2-tailed t-test. Because CD200 has been identified as regulated by MAPK-signaling in melanoma cells, a pathway which is frequently deregulated by BRAF(V600E) function, we wanted to assure that this mode of regulation holds true. To this end, we analyzed publicly available data (GSE10087) on MEK-inhibitor treatment across a cohort of carcinoma and melanoma cell lines (FIG. 11A), measured CD200 levels by qPCR following MEK inhibition in a cohort of our melanoma cell lines (FIG. 11B), and initial reporter assays (FIG. 11C). […] Using qPCR, we measured the effect of MEK-inhibitor treatment on CD200 RNA levels across our panel of melanoma cell lines (see FIG. 11B), using 24 h treatment with PD0325901 [100 nM].

[1] = test system: CD200 promoter (pREP4-CD200 reporter); test: pREP4-CD200 reporter assay; type: cell-based, human; details: 24 h; 100 nM
Experimental: FIGS. 11A-C. 11A. CD200 decrease in melanomas after MEK-inhibitor treatment, but not in carcinomas (GSE10087). 11B. […] 11C. The pREP4-CD200 reporter recapitulates changes in response to MEK-inhibitor (24 h; 100 nM). Significance as * p<0.05: ** p<0.01, based on 2-sample, 2-tailed t-test. The region next to the CD200 transcription start drives basal activity. We have therefore amplified an 850 bp fragment upstream of the CD200 start codon, and cloned it into an EBNA-carrying vector (pREP4-LUC/hygromycin [50]) that remains episomal and replicates within human cells and allows nucleosome deposition to form chromatin. Because CD200 has been identified as regulated by MAPK-signaling in melanoma cells, a pathway which is frequently deregulated by BRAF(V600E) function, we wanted to assure that this mode of regulation holds true. To this end, we analyzed publicly available data (GSE10087) on MEK-inhibitor treatment across a cohort of carcinoma and melanoma cell lines (FIG. 11A), measured CD200 levels by qPCR following MEK inhibition in a cohort of our melanoma cell lines (FIG. 11B), and initial reporter assays (FIG. 11C).

O=C(NOC[C@H](O)CO)c1ccc(F)c(F)c1Nc1ccc(I)cc1F [PD0325901]
CD200 RNA levels (CD200): consistently are reduced; also recorded: consistent downregulation of CD200 levels; also recorded: Consistent CD200 decrease
pREP4-CD200 reporter response [1]: parallels these responses
